Paper PMC11199504, “New hemisynthetic derivatives of sphaeropsidin phytotoxins triggering severe endoplasmic reticulum swelling in cancer cells” (Scientific Reports, 2024)

Key:
Type in all cases: cell-based
A549 = assay: MTT colorimetric assay, A549; details: Homo sapiens, 72 h treatment, mean ± SEM of six replicates of one experiment (1: 7, 13: 6 independent experiments), resistant to apoptosis, read-out: IC50 determined by MTT assays, A549
Excerpt: (§1) Cancer cell lines were obtained from either the European Collection of Cell Cultures (ECACC; Salisbury, UK) or the American Type Culture Collection (ATCC; Manassas, VA). The two glioma cell lines were the U373 (ECACC code 08061901) and Hs683 (ATCC HTB-138) cell lines. The carcinoma cell lines were the A549 non-small cell carcinoma cell line (ATCC code CCL 185) and the MCF-7 mammary breast carcinoma cell line (ATCC code HTB-22). The melanoma cell lines were the mouse B16F10 cells (ATCC code CRL-6475) and the human SKMEL-28 cells (ATCC code HTB-72). The ovarian cancer cell line A2780 and its cisplatin-resistant subline A2780cis were obtained from Sigma-Aldrich (St. Louis, MO, USA). Colon cancer HCT116 cells were obtained from ATCC (CCL-247) and the oxaliplatin-resistant subline HCT116/OxR established in the W. Berger lab[59]. The HeLa cell derivative KB-3-1 and the colchicine-selected, highly ABCB1-overexpressing subline KB-C-1 were generously donated by Dr. D. W. Shen, Bethesda, MD. RKOp53wt colon cancer cells together with the RKOp53KO (homozygous knock-out) subline[60] were generously provided by Dr. Vogelstein from John Hopkins University, Baltimore. The correct origin of all cell models was confirmed by STR during performance of the experiments. All cell lines were cultured in RPMI1640 culture medium supplemented with 10% heat-inactivated fetal bovine serum, 2% L-glutamine (0.6 mg/mL), 2% penicillin/streptomycin (200 IU/mL and 200 μg/mL) and 0.1 mg/mL gentamicin.
(§2) The MTT (3-(4,5-dimethylthiazol-2-yl)-2,5-diphenyl tetrazolium bromide) colorimetric assay has been conducted as described previously. Briefly, cells were seeded 24 h before their treatment with each compound for a period of 72 h. The concentrations tested ranged from 10 nM to 100 µM. Each assay was conducted in sextuplicates. The number of independent experiments is mentioned in the legend of the tables.

SKMEL-28 = assay: MTT colorimetric assay, SKMEL-28; details: Homo sapiens, SK-MEL-28; 72 h treatment; mean ± SEM; resistant to apoptosis; read-out: IC50 determined by MTT assays, SKMEL-28
Excerpt: as §1, §2

U373 = assay: MTT colorimetric assay, U373; details: Homo sapiens, U373 MG; 72 h treatment; mean ± SEM; resistant to apoptosis; read-out: IC50 determined by MTT assays, U373
Excerpt: as §1, §2

MCF7 = assay: MTT colorimetric assay, MCF7; details: Homo sapiens, 72 h treatment, mean ± SEM, sensitive to apoptosis, read-out: IC50 determined by MTT assays, MCF7
Excerpt: as §1, §2

Hs683 = assay: MTT colorimetric assay, Hs683; details: Homo sapiens, Hs 683; 72 h treatment; mean ± SEM; sensitive to apoptosis; read-out: IC50 determined by MTT assays, Hs683
Excerpt: as §1, §2

B16F10 = assay: MTT colorimetric assay, B16F10; details: Mus musculus, B16-F10; 72 h treatment; mean ± SEM; sensitive to apoptosis; read-out: IC50 determined by MTT assays, B16F10
Excerpt: as §1, §2

[1] = system: A549, SKMEL-28, U373, MCF7, Hs683, B16F10; assay: MTT colorimetric assay, mean of the six cell lines; details: 72 h, mean over the six cell lines; 72 h treatment; read-out: IC50 determined by MTT assays, Mean
Excerpt: as §1, §2

[2] = system: SK-MEL-28 human melanoma and U373 glioblastoma cells; assay: ER swelling / vacuole origin (CellLight ER-GFP, brightfield, TEM); details: SK-MEL-28 and U373 cells
Excerpt: To decipher the origin of vacuoles, fluorescent probes staining different cellular compartments were used: the lysosomal Red DND-99 LysoTracker®, the glibenclamide Red ER tracker®, the green FM MitoTracker® that were all purchased from Lifes Technologies (Invitrogen, Belgium) and used according to manufacturer’s instructions. The CellLight ER-GFP (Thermofisher, Belgium) staining of the ER is based on the transfection of a plasmid coding for a fusion protein made of GFP fused to the ER signal sequence of calreticulin and the KDEL ER retention signal. Briefly, 6 × 10^4 cells were seeded on glass coverslips in 6 well plates. After a minimum of 24 h, cells were treated or not with the compounds of interest. Note that concentration and duration of the treatment were determined separately for each compound prior to the experiment on the basis of the apparition of marked morphological changes in phase contrast microscopy. Sixteen hours before the end of the experiment, 4 µL/well of the reagent were added to allow transfection and expression of the GFP-fused protein by the cells. Coverslips were then washed twice in PBS and mounted on slides without fixation step to take captions with the Axio.Imager.M2 microscope (Carl Zeiss, Belgium). To evaluate the cellular distribution of 13, the Axio.Imager.M2 was specifically equipped with an M340L4 excitation source (Thorlabs) and the pseudoconfocal Zeiss ZEN deconvolution system kindly provided for demo by Carl Zeiss (Belgium) to allow direct visualization of the compound 13 itself thanks to its intrinsic fluorescent properties.
For TEM, cells were fixed with glutaraldehyde 2.5% (EM grade, Electron Microscopy Sciences, EMS) at 4 °C overnight, washed tree times in cacodylate buffer (pH 7.4) and postfixed 1 h at room temperature in 1% OsO4, (EMS), 1.5% potassium ferrocyanide (Sigma-Aldrich) in 0.15 M cacodylate buffer. This was immediately followed by a second incubation in 1% OsO4 for 1 h at room temperature. After washing in distilled water, samples were stained with 1% uranyl acetate (EMS) and serially dehydrated in increasing ethanol concentrations. Samples were then embedded in epoxy resin (Agar 100 resin, Agar Scientific Ltd) and left to polymerize for 2 days at 60 °C. Ultrathin sections (50–70 nm thick) were collected with a Leica UC6 ultra-microtome on formvar-carbon-coated copper grids and further stained with uranyl acetate and lead citrate by standard procedures. Observations were made on a Tecnai 10 transmission electron microscope (FEI) and images were captured with a Veleta camera and processed with SIS iTEM software (Olympus).

| Structure (SMILES) | IC50 (A549) [nM] | IC50 (SKMEL-28) [nM] | IC50 (U373) [nM] | IC50 (MCF7) [nM] | IC50 (Hs683) [nM] | IC50 (B16F10) [nM] | IC50 [1] [nM] | ER swelling / ER-derived vacuolization [2] |
| --- | --- | --- | --- | --- | --- | --- | --- | --- |
| CC1(C=CCOCc2ccc3ccc4cccc5ccc2c3c45)C=C2C(=O)C3(O)OC(=O)C4(CCCC(C)(C)C34)C2(O)CC1 (stereo not shown) [Compound 25] | 3470 ± 3280 | 3320 ± 300 | 3930 ± 100 | 2710 ± 140 | 3320 ± 230 | 3280 ± 300 | 3340 ± 160 | induction of ER-derived vacuolization |
| CC1(C=CCCOc2cccc3ccccc23)C=C2C(=O)C3(O)OC(=O)C4(CCCC(C)(C)C34)C2(O)CC1 (stereo not shown) [Compound 26] | 2050 ± 200 | 2460 ± 80 | 2840 ± 120 | 1300 ± 110 | 3100 ± 230 | 1080 ± 140 | 2140 ± 330 | induction of ER-derived vacuolization |
